Here are results for 2 compounds from patent EP4806910A1, “TRI-AGONIST COMPOUND” (priority 2023, dated 2025).

Data set [1] addresses T1, GLP-1R (Homo sapiens, UniProt P43220).
T1 construct: expressed in transfected cells; host or cells: CHO-K1
The data set is described as follows: GLP-1 activity test (cAMP, chemiluminescence). In kind it is cell-based. The procedure:
(§1) Upon stimulation by a specific agonist, GLP-1R activates the intracellular adenylate cyclase signaling pathway, resulting in an increase in cAMP levels and ultimately leading to insulin production and secretion. A cell line stably transfected with GLP-1R was stimulated with test compounds, thereby rapidly increasing intracellular cAMP levels. The relative luminescence units (RLU) of cells stimulated at various concentrations were measured by a chemiluminescence method, and the EC50 value of the agonist was calculated accordingly. This activity test method is currently a commonly used method for evaluating GLP-1 receptor agonist activity both domestically and internationally. A CHO-K1 cell line stably expressing GLP-1R was used. The stable cells were stimulated with agonists at different concentrations, and the relative luminescence units after stimulation at each concentration were measured to calculate the EC50 value of the agonist.

Data set [2] has as its target T2, GIPR (Homo sapiens, UniProt P48546).
T2 construct: expressed in transfected cells; host or cells: CHO-K1
T2 sequence (P48546 22-466): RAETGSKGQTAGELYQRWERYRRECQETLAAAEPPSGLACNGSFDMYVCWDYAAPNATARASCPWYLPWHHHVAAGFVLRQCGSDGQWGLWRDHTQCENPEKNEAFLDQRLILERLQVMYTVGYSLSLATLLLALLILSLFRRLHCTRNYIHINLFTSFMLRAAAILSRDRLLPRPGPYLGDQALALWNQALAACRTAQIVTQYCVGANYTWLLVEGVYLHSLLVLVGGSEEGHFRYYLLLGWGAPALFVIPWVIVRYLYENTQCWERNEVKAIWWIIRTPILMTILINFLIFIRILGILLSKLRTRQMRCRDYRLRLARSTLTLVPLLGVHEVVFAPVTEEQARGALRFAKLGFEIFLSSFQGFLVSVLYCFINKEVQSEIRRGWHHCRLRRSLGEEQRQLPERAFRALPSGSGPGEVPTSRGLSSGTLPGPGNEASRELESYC
Put plainly: GIP activity test (cAMP, chemiluminescence). Type of data set: cell-based. How it is done: as §1, with “agonist, GIPR” for “agonist, GLP-1R”, “with GIPR” for “with GLP-1R”, “activity assay” for “activity test”, “evaluating GIP” for “evaluating GLP-1”, “expressing GIPR” for “expressing GLP-1R”

Data set [3] concerns the target T3, GCG-R (Homo sapiens, UniProt P47871).
T3 construct: expressed in transfected cells; host or cells: CHO-K1
The data set is described as follows: GCG activity test (cAMP, chemiluminescence). Type of data set: cell-based. The procedure:
Upon stimulation by a specific agonist, GCG-R activates the intracellular adenylate cyclase signaling pathway, resulting in an increase in cAMP levels and ultimately leading to insulin production and secretion. A cell line stably transfected with GCG-R was stimulated with test compounds, thereby rapidly increasing intracellular cAMP levels. The relative luminescence units (RLU) of cells stimulated at various concentrations were measured by a chemiluminescence method, and the EC50 value of the agonist was calculated accordingly. This activity assay method is currently a commonly used method for evaluating GCG receptor agonist activity both domestically and internationally.
A CHO-K1 cell line stably expressing GCG-R was used. The stable cells were stimulated with agonists at different concentrations, and the relative luminescence units after stimulation at each concentration were measured to calculate the EC50 value of the agonist.

Data set [4] can be described thus: Preliminary pharmacokinetic evaluation, plasma concentration by LC-MS. In kind it is in vivo, cynomolgus monkeys. To be noted: for half-life: cynomolgus monkey, male cynomolgus monkeys, subcutaneously (SC), 0.2 mg/kg, plasma; for half-lives: cynomolgus monkeys, administered subcutaneously. The procedure: The test animals were male cynomolgus monkeys. Two animals were used for each compound. The compounds were administered subcutaneously at a dose of 0.2 mg/kg. Blood samples were collected via intravenous sampling prior to administration (0 h) and at 1 h, 2 h, 3 h, 4 h, 8 h, 12 h, 18 h, 24 h, 48 h, 96 h, 144 h, and 168 h after administration. Plasma samples were obtained by centrifugation. The plasma concentrations of the compounds were respectively determined by liquid chromatography - mass spectrometry (LC-MS).

T3 sequence (P47871 26-477, species assumed): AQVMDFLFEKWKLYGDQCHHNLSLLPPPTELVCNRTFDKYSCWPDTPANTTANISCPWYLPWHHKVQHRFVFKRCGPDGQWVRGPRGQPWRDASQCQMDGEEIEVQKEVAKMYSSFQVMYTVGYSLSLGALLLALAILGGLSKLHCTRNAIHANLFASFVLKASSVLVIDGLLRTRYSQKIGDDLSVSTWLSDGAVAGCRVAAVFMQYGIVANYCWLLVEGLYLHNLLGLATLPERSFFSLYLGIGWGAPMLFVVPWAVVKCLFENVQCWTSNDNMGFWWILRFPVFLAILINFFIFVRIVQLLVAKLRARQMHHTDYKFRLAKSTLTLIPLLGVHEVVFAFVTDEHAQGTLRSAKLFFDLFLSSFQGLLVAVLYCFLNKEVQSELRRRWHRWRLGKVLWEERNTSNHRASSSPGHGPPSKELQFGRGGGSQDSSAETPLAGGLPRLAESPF
T1 sequence (P43220 24-463, species assumed): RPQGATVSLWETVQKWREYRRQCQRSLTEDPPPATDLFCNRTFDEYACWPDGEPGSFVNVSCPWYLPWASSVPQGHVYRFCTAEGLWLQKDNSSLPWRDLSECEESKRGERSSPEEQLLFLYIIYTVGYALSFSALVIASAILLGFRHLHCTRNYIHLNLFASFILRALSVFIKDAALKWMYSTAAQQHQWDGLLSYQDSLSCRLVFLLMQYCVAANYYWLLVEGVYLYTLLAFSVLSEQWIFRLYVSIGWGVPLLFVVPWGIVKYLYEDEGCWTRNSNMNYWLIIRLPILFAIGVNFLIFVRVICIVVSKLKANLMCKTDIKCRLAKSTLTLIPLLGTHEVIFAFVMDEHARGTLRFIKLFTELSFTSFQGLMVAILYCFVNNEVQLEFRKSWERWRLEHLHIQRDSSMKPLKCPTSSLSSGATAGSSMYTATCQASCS

By EC50 is commonly meant the midpoint of the concentration-response curve. A low value points to greater potency. Usually half-life stands for the time needed for the level to fall by half in the phase considered. Low values mean rapid decline, high ones slow decline. On to `CC[C@H](C)[C@H](NC(=O)[C@H](Cc1ccccc1)NC(=O)[C@H](C)NC(=O)C(C)(C)NC(=O)[C@H](CCC(N)=O)NC(=O)[C@H](C)NC(=O)[C@H](CCCCNC(=O)COCCOCCNC(=O)CCC[C@H](NC(=O)CCCCCCCCCCCCCCCCCCC(=O)O)C(=O)O)NC(=O)[C@H](CCCCN)NC(=O)[C@H](CC(=O)O)NC(=O)[C@H](CC(C)C)NC(=O)C(C)(CC(C)C)NC(=O)[C@@H](NC(=O)[C@H](CO)NC(=O)[C@H](Cc1ccc(O)cc1)NC(=O)[C@H](CC(=O)O)NC(=O)[C@H](CO)NC(=O)[C@@H](NC(=O)C(C)(Cc1ccccc1F)NC(=O)[C@@H](NC(=O)CNC(=O)[C@H](CCC(N)=O)NC(=O)C(C)(C)NC(=O)[C@@H](N)Cc1ccc(O)cc1)[C@@H](C)O)[C@@H](C)O)[C@@H](C)CC)C(=O)N[C@@H](CCC(=O)O)C(=O)N[C@@H](Cc1ccc(O)cc1)C(=O)N[C@@H](CC(C)C)C(=O)N[C@@H](CC(C)C)C(=O)N[C@@H](CCC(=O)O)C(=O)NCCCCC(=O)N1CCC[C@H]1C(=O)N[C@@H](CO)C(=O)N[C@@H](CO)C(=O)NCC(=O)N[C@@H](C)C(=O)N1CCC[C@H]1C(=O)N1CCC[C@H]1C(=O)N1CCC[C@H]1C(=O)N[C@@H](CO)C(N)=O` (stereo partly shown) [Compound 6], for which the EC50 is 0.0375 nM in data set [1], 0.0188 nM in data set [2] and 0.141 nM in data set [3]. In data set [4], this compound gave a half-life of 115 h. Also, the half-lives result in data set [4] is given as “greater than 100 hours”.
For `CC[C@H](C)[C@H](NC(=O)[C@H](Cc1ccccc1)NC(=O)[C@H](C)NC(=O)C(C)(C)NC(=O)[C@H](CCC(N)=O)NC(=O)[C@H](C)NC(=O)[C@H](CCCCNC(=O)COCCOCCNC(=O)CCC[C@H](NC(=O)CCCCCCCCCCCCCCCCCCC(=O)O)C(=O)O)NC(=O)[C@H](CCCCN)NC(=O)[C@H](CC(=O)O)NC(=O)[C@H](CC(C)C)NC(=O)C(C)(CC(C)C)NC(=O)[C@@H](NC(=O)[C@H](CO)NC(=O)[C@H](Cc1ccc(O)cc1)NC(=O)[C@H](CC(=O)O)NC(=O)[C@H](CO)NC(=O)[C@@H](NC(=O)C(C)(Cc1ccccc1)NC(=O)[C@@H](NC(=O)CNC(=O)[C@H](CCC(N)=O)NC(=O)C(C)(C)NC(=O)[C@@H](N)Cc1ccc(O)cc1)[C@@H](C)O)[C@@H](C)O)[C@@H](C)CC)C(=O)N[C@@H](CCC(=O)O)C(=O)N[C@@H](Cc1ccc(O)cc1)C(=O)N[C@@H](CC(C)C)C(=O)N[C@@H](CC(C)C)C(=O)N[C@@H](CCC(=O)O)C(=O)NCCCCC(=O)N1CCC[C@H]1C(=O)N[C@@H](CO)C(=O)N[C@@H](CO)C(=O)NCC(=O)N[C@@H](C)C(=O)N1CCC[C@H]1C(=O)N1CCC[C@H]1C(=O)N1CCC[C@H]1C(=O)N[C@@H](CO)C(N)=O` (stereo partly shown) [Compound 2], the EC50 in data set [1] was 0.0406 nM; in data set [2], 0.0181 nM; in data set [3], 0.244 nM. This compound gave a half-life in data set [4] of 108 h. For the same compound, in data set [4], the half-lives entry was “greater than 100 hours”.
